Assay results from patent US12295992B2, “Use of ALDH1A and agonist, catalyst and inhibitor thereof” (SHANGHAI INSTITUTES FOR BIOLOGICAL SCIENCES, CHINESE …, priority 2017, dated 2025).

Assays:
[1] = test system: mice overexpressing UBE3A; assay: Rotating rod experiment in mice overexpressing UBE3A; type: in vivo; conditions: oral ATRA 3 mg/kg
Method: Three-week-aged mice were anesthetized with intraperitoneal injection of pentobarbital (50 mg/kg) and fixed on a locator (Rivend, China). 1 μL of PBS-diluted AAV virus was injected at a rate of 0.2 μL/min on both sides of the PFC region in the mouse brain using a syringe pump (Stoelting). The position of the site injection (relative to the front fontanel): AP, +2 mm; ML, ±0.5 mm; DV, −1.3 mm. The amount of virus injected per injection site was: AAV-SynI-Flag-UBE3A and its mutant T508E, 3×10^9; and AAV-SynI-Flag-EGFP, 1.5×10^9. The needle was held in place for another 3 minutes to prevent virus reflux. The mice were placed on a 37° C. electric blanket until they recovered completely from the anesthesia. 1-2 days after surgery, mice were intraperitoneally injected with 0.5 mg/ml meloxicam (Sigma, 2 mg/kg) to help the mice to relieve pain. Four weeks after surgery, mice were tested for behavior. […]
After mice were randomized into groups, the motor coordination ability of the mice was recorded using a Rotamex rotarod instrument (Columnbus Instruments). […] The time before the test mice dropped off the rod was automatically recorded by an infrared detection system, and the results of the last test were finally compared.

[2] = test system: mice overexpressing UBE3A; assay: Open field experiment in mice overexpressing UBE3A; type: in vivo; conditions: oral ATRA 3 mg/kg, vs solvent group
Method: Three-week-aged mice were anesthetized with intraperitoneal injection of pentobarbital (50 mg/kg) and fixed on a locator (Rivend, China). 1 μL of PBS-diluted AAV virus was injected at a rate of 0.2 μL/min on both sides of the PFC region in the mouse brain using a syringe pump (Stoelting). The position of the site injection (relative to the front fontanel): AP, +2 mm; ML, ±0.5 mm; DV, −1.3 mm. The amount of virus injected per injection site was: AAV-SynI-Flag-UBE3A and its mutant T508E, 3×10^9; and AAV-SynI-Flag-EGFP, 1.5×10^9. The needle was held in place for another 3 minutes to prevent virus reflux. The mice were placed on a 37° C. electric blanket until they recovered completely from the anesthesia. 1-2 days after surgery, mice were intraperitoneally injected with 0.5 mg/ml meloxicam (Sigma, 2 mg/kg) to help the mice to relieve pain. Four weeks after surgery, mice were tested for behavior. In the ATRA compensation experiment, one week after the injection of AAV-SynI-Flag-UBE3A virus, mice were orally administered with ATRA (Sigma, dissolved in olive oil, 3 mg/kg) or olive oil for five consecutive days. Behavioral testing was performed 4 weeks after administration.
Mice were randomized into groups and placed in an open field instrument (Med Associates) for 30 minutes. […]

wild-type C57BL/6 mice [3] = assay: Open field experiment in wild-type mice; type: in vivo; conditions: wild-type mice, oral ATRA, same administration
Method: (§1) Four-week-aged mice were given a low dose (0.1 mg/g) or a high dose (0.3 mg/g) of DSF (Sigma, dissolved in olive oil) every two days for 6 weeks. The control group was only given the solvent olive oil (Aladdin). The body weight of the mice was weighed weekly. After 6 weeks of gastric administration, the test of mouse behavior was started. The brains of the control and DSF mice were dissected and taken. After freezing with liquid nitrogen, the brain tissue was homogenized, and ATRA was quantified by the HPLC-MS/MS method as described hereinafter.
Mice were randomized into groups and placed in an open field instrument (Med Associates) for 30 minutes. The Ethovision automatic recording software (Noldus) was used to record the time spent by the mouse in the central region (⅓ to ⅔ of length on each side of the region) and to calculate the ratio of the distance walked in the central region to the total distance.

wild-type C57BL/6 mice [4] = assay: Rotating rod experiment in wild-type mice; type: in vivo; conditions: wild-type mice, oral ATRA, same administration
Method: as §1
After mice were randomized into groups, the motor coordination ability of the mice was recorded using a Rotamex rotarod instrument (Columnbus Instruments). On the same day, the test mice were tested 3 times, each experiment was lasted 5 minutes, and the rotating rod was accelerated from 4 revolutions […]. There were at least 30 minutes between two experiments. The time before the test mice dropped off the rod was automatically recorded by an infrared detection system, and the results of the last test were finally compared.

wild-type C57BL/6 mice [5] = assay: Three-chamber social experiment in wild-type mice; type: in vivo; conditions: wild-type mice, oral ATRA, same administration
Method: Four-week-aged mice were given a low dose (0.1 mg/g) or a high dose (0.3 mg/g) of DSF (Sigma, dissolved in olive oil) every two days for 6 weeks. The control group was only given the solvent olive oil (Aladdin). The body weight of the mice was weighed weekly. After 6 weeks of gastric administration, the test of mouse behavior was started. The brains of the control and DSF mice were dissected and taken. After freezing with liquid nitrogen, the brain tissue was homogenized, and ATRA was quantified by the HPLC-MS/MS method as described hereinafter. A three-chamber social experiment was performed according to previously reported procedures (Sztainberg et al., 2015). Briefly, a transparent acrylic box for social experiment was divided into three chambers of uniform size with removable gates mounted on the partition board. An inverted iron mesh cup was placed in each of the left and right chambers. Two days before the experiment, C57BL/6 mice, which were from different family and whose age was matched with the test mice, were placed in two cups as strange mice for 1 hour each day for accommodation. Test mice were randomized into groups and accommodated to the test chamber for 1 hour before the test started. Each test mouse was placed in the center chamber for 10 minutes for self-exploration, and the chamber door was closed. In the first stage, a strange mouse was randomly placed in the left or right cup (avoiding positional bias), and the inanimate article was placed in the cup on the other side. […] In the second stage, the test mice were kept in the chamber of the strange mouse for 5 minutes, and then another strange mouse was placed in the cup in which the article was previously placed.

[6] = test system: mice overexpressing UBE3A; assay: Self-grooming experiment in mice overexpressing UBE3A (AAV in PFC); type: in vivo; conditions: oral ATRA 3 mg/kg, four weeks, compared to oral solvent group
Method: To further verify whether UBE3A overactivation triggered the autism phenotype in mice due to injury in the RA production process, mice injected with UBE3A-bearing AAV virus in PFC were orally administered with oral solvents (olive oil) or ATRA (3 mg/kg), administered five consecutive days per week for a total of four weeks.

[7] = test system: mice overexpressing UBE3A; assay: Three-chamber social experiment in mice overexpressing UBE3A; type: in vivo; conditions: oral ATRA 3 mg/kg
Method: Three-week-aged mice were anesthetized with intraperitoneal injection of pentobarbital (50 mg/kg) and fixed on a locator (Rivend, China). 1 μL of PBS-diluted AAV virus was injected at a rate of 0.2 μL/min on both sides of the PFC region in the mouse brain using a syringe pump (Stoelting). The position of the site injection (relative to the front fontanel): AP, +2 mm; ML, ±0.5 mm; DV, −1.3 mm. […] The needle was held in place for another 3 minutes to prevent virus reflux. The mice were placed on a 37° C. electric blanket until they recovered completely from the anesthesia. 1-2 days after surgery, mice were intraperitoneally injected with 0.5 mg/ml meloxicam (Sigma, 2 mg/kg) to help the mice to relieve pain. Four weeks after surgery, mice were tested for behavior. […] Behavioral testing was performed 4 weeks after administration.
A three-chamber social experiment was performed according to previously reported procedures (Sztainberg et al., 2015). Briefly, a transparent acrylic box for social experiment was divided into three chambers of uniform size with removable gates mounted on the partition board. An inverted iron mesh cup was placed in each of the left and right chambers. Two days before the experiment, C57BL/6 mice, which were from different family and whose age was matched with the test mice, were placed in two cups as strange mice for 1 hour each day for accommodation. Test mice were randomized into groups and accommodated to the test chamber for 1 hour before the test started. Each test mouse was placed in the center chamber for 10 minutes for self-exploration, and the chamber door was closed. In the first stage, a strange mouse was randomly placed in the left or right cup (avoiding positional bias), and the inanimate article was placed in the cup on the other side. Each test mouse was explored for 10 minutes in the open three-chambers, and the communication time between the test mice and the strange mice or the articles was manually recorded. In the second stage, the test mice were kept in the chamber of the strange mouse for 5 minutes, and then another strange mouse was placed in the cup in which the article was previously placed. The test mice were further explored for 10 minutes, and the communication time between the test mice and the familiar animals or the new animals was manually recorded.
To further verify whether UBE3A overactivation triggered the autism phenotype in mice due to injury in the RA production process, mice injected with UBE3A-bearing AAV virus in PFC were orally administered with oral solvents (olive oil) or ATRA (3 mg/kg), administered five consecutive days per week for a total of four weeks. Then the mice were subjected to behavioral experiments (FIG. 8a).

wild-type C57BL/6 mice [8] = assay: Self-grooming experiment in wild-type mice; type: in vivo; conditions: wild-type mice, oral ATRA, same administration
Method: as §1, with “hereinafter. The mice used in the self-grooming experiment were placed in a cage box filled with a filler having a thickness of about 0.5-1 cm for 10 minutes in advance for accommodation. Then, within 10 minutes, the time of self-grooming in mice was recorded by a double-blind experimenter through a stopwatch.” for “hereinafter.”

[9] = molecular target: T1, GST-UBE3A and ALDH1A2 proteins (Homo sapiens, UniProt O94788); assay: GST pull-down competition of UBE3A-ALDH1A2 binding; conditions: peptide added in GST pull-down experiment
T1 construct: His6 (C); made in house; host or cells: E. coli BL21
T1 sequence (O94788 1-518): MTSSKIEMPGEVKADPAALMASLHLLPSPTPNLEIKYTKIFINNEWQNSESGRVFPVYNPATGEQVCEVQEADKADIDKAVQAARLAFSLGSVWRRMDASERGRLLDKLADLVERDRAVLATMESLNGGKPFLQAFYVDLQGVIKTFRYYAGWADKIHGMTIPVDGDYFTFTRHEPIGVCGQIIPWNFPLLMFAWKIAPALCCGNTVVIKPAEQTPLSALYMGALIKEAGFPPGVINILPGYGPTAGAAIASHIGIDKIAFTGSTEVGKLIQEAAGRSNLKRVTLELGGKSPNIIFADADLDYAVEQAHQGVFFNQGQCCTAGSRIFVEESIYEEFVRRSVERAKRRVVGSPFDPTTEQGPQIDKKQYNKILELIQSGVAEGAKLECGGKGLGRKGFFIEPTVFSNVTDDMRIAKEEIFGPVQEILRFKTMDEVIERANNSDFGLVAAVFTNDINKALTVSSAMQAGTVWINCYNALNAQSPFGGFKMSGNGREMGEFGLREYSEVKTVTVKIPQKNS
Method: GST, GST-UBE3A and the truncated GST-UBE3A proteins were induced to express in BL21 competent bacterium (NEB) and purified using glutathione agarose (GE Healthcare). ALDH1A1-His6, ALDH1A2-His6 and ALDH1A3-His6 proteins were purified using Ni-NTA agarose (Qiagen). The purified ALDH1A2-His6 and GST-UBE3A proteins were incubated in a pull-down buffer (50 mM Tris-Cl, pH 8.0, 200 mM NaCl, 1 mM EDTA, 1% NP-40, 1 mM DTT, 10 mM MgCl2) at 4° C. for 2 hours. The beads were washed 4 times with the pull-down buffer and analyzed by immunoblotting. The pull-down analysis of other proteins followed the same steps.
Since there was no known substrate for UBE3A to explain the association between the onset of ASD and UBE3A overactivation from a mechanical perspective (Glessner et al., 2009), human UBE3A protein was firstly used as a bait to screen for unknown substrate proteins by yeast two-hybrid method. […] Retinoic acid or RA, as an active metabolite of vitamin A (retinol), is required for the development and growth of higher animals including human. The synthesis of RA is accomplished in two steps, including retinol dehydrogenase (RDH10), which catalyzes retinol into retinal, and retinal dehydrogenase (ALDH1A1, ALDH1A 2, and ALDH1A 3 families which catalyze retinal into retinoic acid). Endogenous or exogenously expressed UBE3A and ALDH1A2 proteins were confirmed to form complexes in HEK-293FT cells by immunoprecipitation experiments (FIG. 2b-c). In immunofluorescence experiments, Flag-tagged and RFP-tagged UBE3A and ALDH1A2 proteins were co-localized in the cytoplasm of […] cell SH-SY5Y (FIG. 2d). The GST pull-down experiment further confirmed that the recombinant proteins UBE3A and ALDH1A2 could bind directly in vitro (FIG. 2e) and bound through the N-terminal (amino acid position of 1-280) of UBE3A (FIG. 2f). Since the ALDH1A2 protein had high sequence homology to other family members of ALDH1A1 and ALDH1A 3, it was further verified that UBE3A could bind directly to ALDH1A1 and ALDH1A3, respectively, in vitro and in vivo (FIG. 2g-j). […]

CC1=C(/C=C/C(C)=C/C=C/C(C)=C/C(=O)O)C(C)(C)CCC1 [ATRA, all-trans retinoic acid]
sport ability (rotating rod) [1]: did not affect the sport ability | distance walked in open field [2]: walked more distance | time in the middle of the open field [2]: less time | open field experiment, solvent vs ATRA (wild-type C57BL/6 mice [3]): did not cause any differences | rotating rod experiment, solvent vs ATRA (wild-type C57BL/6 mice [4]): did not cause any differences | three-chamber social interaction experiment, solvent vs ATRA (wild-type C57BL/6 mice [5]): did not cause any differences | time spent on self-grooming behavior [6]: significantly reduced | cognitive deficits in social novelty [7]: alleviated | time interacting with social animals vs non-social articles [7]: nearly twice as much time | time spent with strange mice vs familiar mice [7]: twice | social barriers ([7]; compared with solvent group): completely reversed | self-grooming experiment, solvent vs ATRA (wild-type C57BL/6 mice [8]): did not cause any differences

peptide-1: SEQ ID No: 9 ASRMKRAAAKHLIERYYHQLTEGCG, targets UBE3A-ALDH1A2 binding region (peptide-1)
blocking of binding between GST-UBE3A and ALDH1A2 proteins [9]: could block the bonding between GST-UBE3A and ALDH1A2 proteins in different extend

peptide-2: SEQ ID No: 10 NNAAAIKALELYKINAKLCDPH, targets UBE3A-ALDH1A2 binding region (peptide-2)
blocking of binding between GST-UBE3A and ALDH1A2 proteins [9]: could block the bonding between GST-UBE3A and ALDH1A2 proteins in different extend

peptide-3: SEQ ID No: 11 AEALVQSFRKVKQHTKEELKSLQAKDEDKD, targets UBE3A-ALDH1A2 binding region (peptide-3)
blocking of binding between GST-UBE3A and ALDH1A2 proteins [9]: could block the bonding between GST-UBE3A and ALDH1A2 proteins in different extend
